Assay results published in publication PMC12088962, “Design, synthesis, and biological investigation of new thiazole-based derivatives as multi-targeted inhibitors endowed with antiproliferative, antioxidant, and antibacterial properties” (Frontiers in Chemistry, 2025).
Converted amounts (≈) assume the structure as drawn.

Columns and labels:
in vitro = conditions: human, MCF-10A mammary gland epithelial cells (normal cell line)
E. coli DNA gyrase = E. coli DNA gyrase (Escherichia coli, UniProt P0AES6); assay: DNA gyrase supercoiling assay; type: biochemical; conditions: for remaining activity at 1 µM: read-out: RA (residual activity of the enzyme), E. Coli DNA gyrase
Protocol: 4.2.3. Determination of Inhibitory Activities on E. coli DNA Gyrase.
All the final compounds were tested for E. coli DNA gyrase inhibitory activity in a supercoiling assay. Activities were determined on streptavidin -coated 96-well microtiter plates from Thermo scientific Pierce. First, the plates were rehydrated with buffer (20 mM Tris -HCl with pH 7.6, 0.01% […]
immobilized. After washing off the unbound oligonucleotide, the enzyme test was performed. The reaction volume of 30 μL in buffer (35 mM Tris-HCl with pH 7.5, 4 mM MgCl 2, 24 mM KCl, 2 […]
1.5 U of DNA gyrase from E. coli or S. aureus, 0.75 μg of relaxed pNO1 plasmid, and 3 μL solution of the inhibitor in 1 0% DMSO and 0.008% Tween 20. Reaction solutions were incubated at 37 °C […]
for 30 min. After that, the TF buffer (50 mM NaOAc with pH 5.0, 50 mM NaCl and 50 mM MgCl2) was added to terminate the enzymatic reaction. After additional incubation for 30 min at rt, during which biotin-oligonucleotide-plasmid triplex was formed, the unbound plasmid was washed off using TF buffer and SybrGOLD in T10 buffer (10 mM Tris HCl wit h pH 8.0 and 1 mM EDTA) was added. The fluorescence was measured with a microplate reader (BioTek Synergy H4, excitation: 485 nm, emission: 535 nm). […]
tested compounds. GraphPad Prism software was used to calculate the IC50 values. The result is given as the average value of three independent measurements. […]

[1] = test system: four cancer cell lines (A-549, MCF-7, Panc-1, HT-29); assay: Antiproliferative MTT assay, average over four cancer cell lines; conditions: for GI50: Homo sapiens, read-out: Antiproliferative activity, Average (GI50)
Excerpt: (§8) Dose-response assays determined the IC50 values for the novel compounds. We derived the reported data from a minimum of two separate experiments, each consisting of three repetitions per concentration.
Assay for antiproliferative effect

MCF-7 cells = assay: Antiproliferative MTT assay; conditions: for IC50: Homo sapiens, MCF7, read-out: Antiproliferative activity IC50 ± SEM, MCF-7
Excerpt: as §8
Assay for antiproliferative effect

VEGFR-2 = VEGFR-2 (Homo sapiens, UniProt P35968); assay: VEGFR-2 inhibitory assay
Protocol: The outcomes are presented as IC50 values.
(§9) was added to each well followed by incubation of 1h and then washing of the plates using buffer.
(§10) The enhancement solution was added to each well and the signal was recorded at excitation and
(§11) The autophosphorylation percentage inhibition by compounds was calculated using the following equation:
Prepare all the solutions using autoclaved, deionized water and analytical grade reagents.
and store all the reagents at room temperature (unless indicated otherwise).
solution, add 5 mL ultra-pure water; 1×Kinase Assay Buffer: add 25 mL HEPES solution (1 M),
water, adjust pH to 7.5 and constant volume to 500 mL using ultrapure water; 4×Stop solution (40
mM): Mix 0.8 mL of the foregoing EDTA solution, 1 mL 10×Detection Buffer and 8.2 mL ultra-
pure water; 1×Detection Buffer: Mix 1 mL 10×Detection Buffer with 9 mL water; 4×VEGFR
μM) was added to 624 μL 1×Kinase Assay Buffer and mixed; 4×ULight™-labeled JAK1
(substrate) (200 nM, 25 times diluted): 24 μL ULight™-labeled JAK1 (mother liquor
concentration 5 μM) was added to 576 μL 1×Kinase Assay Buffer and mixed; 4×ATP Solution
(40 μM, 250 times diluted): add 3 μL ATP solution (10 mM) to 747 μL 1×Kinase Assay Buffer
2×substrate/ATP Mix: 560 μL foregoing 4×ULight™-labeled JAK1 and 560 μL 4×ATP solution
and mixed (prepared before use). The assays used an ULight-labeled peptide substrate and a
Europium-W1024-labeled antiphosphotyrosine antibody. The VEGFR-2 was purchased from
Carna Biosciences, Inc. (New York, USA). The 384-well plates were obtained from PerkinElmer.
5 μL 2×VEGFR-2 kinase solution (0.5 nM)
was added to 384-well plates homogeneous mixing and pre-reaction at room temperature for 30 min. Next, 2.5 μL 4×Ultra ULightTM-JAK-1(Tyr1023) Peptide (200 nM)/ATP (40 μM) was added to the corresponding wells of a 384-well plate. Negative control: 2.5 μL/well 4×substrate/ATP mixture and 7.5 μL 1×kinase assay buffer in 384-well plate well. Positive control:
μL/well 2×VEGFR-2 kinase solution was added to the 384-well plate, The final concentration of DMSO in the mixing system was 4%. After incubation at room temperature and dark for 60 min, 5 μL 4×stop solution was added to corresponding wells to react for 5 min and then 5 μL 4×detection mix was added to the corresponding wells of a 384-well plate. The mixture was centrifugally mixed and stayed for 60 min at room temperature for color development. The plate was read using a Envision plate reader. The inhibition rate (%) = (positive well reading-compound well reading)/(positive well reading-negative well reading)×100. The corresponding IC50 values were calculated using GraphPad Prism 5.0.

Panc-1 cells = assay: Antiproliferative MTT assay; conditions: Homo sapiens, PANC-1, read-out: Antiproliferative activity IC50 ± SEM, Panc-1
Excerpt: as §8
Assay for antiproliferative effect

HT-29 cells = assay: Antiproliferative MTT assay; conditions: Homo sapiens, HT-29, read-out: Antiproliferative activity IC50 ± SEM, HT-29
Excerpt: as §8
Assay for antiproliferative effect

A-549 cells = assay: Antiproliferative MTT assay; conditions: for IC50: Homo sapiens, A549, read-out: Antiproliferative activity IC50 ± SEM, A-549
Excerpt: as §8
Assay for antiproliferative effect

EGFR = EGFR (Homo sapiens, UniProt P00533); assay: EGFR-TK inhibitory assay
Protocol: Baculoviral expression vectors including pBlueBacHis2B and pFASTBacHTc were used
5ʹ upstream to the EGFR sequence comprised a sequence that encoded (His)6. Sf-9 cells were infected for 72h for protein expression. The pellets of Sf-9 cells were solubilized in a buffer containing sodium vanadate (100 μM), aprotinin (10 μg/mL), triton (1%), HEPES buffer(50mM), ammonium molybdate (10 μM), benzamidine HCl (16 μg/mL), NaCl (10 mM),leupeptin (10 μg/mL) and pepstatin (10 μg/mL) at 0°C for 20 min at pH 7.4, followed by centrifugation for 20 min. To eliminate the nonspecifically bound material, a Ni-NTA super flow packed column was used to pass through and wash the crude extract supernatant first with 10mM and then with 100 mM imidazole. Histidine-linked proteins were first eluted with 250 and then with 500 mM imidazole subsequent to dialysis against NaCl (50 mM), HEPES (20 mM), glycerol (10%) and 1 μg/mL each of aprotinin, leupeptin and pepstatin for 120 min. The purification was performed either at 4 °C or on ice. To record autophosphorylation level, EGFR kinase assay was carried out on the basis of DELFIA/Time-Resolved Fluorometry. The compounds were first
dissolved in DMSO absolute, subsequent to dilution to appropriate concentration using HEPES
(25 mM) at pH 7.4. Each compound (10 μL) was incubated with recombinant enzyme (10 μL, 5
ng for EGFR, 1:80 dilution in 100 mM HEPES) for 10 min at 25 °C, subsequent to the addition of
5X buffer (10 μL, containing 2 mM MnCl2, 100 μM Na3VO4, 20 mM HEPES and 1 mM DTT)
and ATP-MgCl2 (20 μL, containing 0.1 mM ATP and 50 mM MgCl2) and incubation for 1h. The
negative and positive controls were included in each plate by the incubation of enzyme either with
or without ATP-MgCl2. The liquid was removed after incubation and the plates were washed
thrice using a wash buffer. The Europium-tagged antiphosphotyrosine antibody (75 μL, 400 ng)
as §9, §10, §11
calculated. The majority of signals detected by antiphosphotyrosine antibody were from EGFR because the enzyme preparation contained low impurities.

S. aureus = assay: MIC by twofold serial dilution; type: cell-based, Staphylococcus aureus (ATCC 12600); conditions: Staphylococcus aureus; Gram-positive; read-out: Minimum inhibitory concentration (MIC), S. aureus
Protocol: (§1) The antibacterial efficacy of compounds 11b, 11e, and 12b was evaluated against Gram-positive bacteria (S. aureus and B. subtilis) and Gram-negative bacteria (E. coli and P. aeruginosa). Table 5 presents the MICs (nM) of these compounds against the evaluated bacteria, utilizing ciprofloxacin as the reference drug, determined through a twofold serial dilution approach on a 96-well microtiter plate ([Frejat F. O. et al., 2022]).
as §1, with “The” for “Table 5 presents the”, “the tested” for “these”, “bacteria were” for “bacteria, utilizing ciprofloxacin as the reference drug,”, “2022]). See Appendix A for more details.” for “2022]).”
(§2) 4.2. Antimicrobial activity
(§3) 4.2.1. Organisms and culture conditions […]
(§4) 4.2.2. Minimum inhibitory concentration assay
(§5) In 96-well microtiter plates and […] of fresh bacterial culture of a single McFarland unit overnight, a double serial dilution of each compound […] in sterile standard saline were prepared to every single source well. Ciprofloxacin antibiotic (5 mg / mL-1) and normal saline were included as standard reference in each assay. The plates were incubated at 37 0C overnight.
(§6) As an indicator of bacterial growth, […] of p -iodonitrotetrazolium violet (INT) was added to each well and incubated at 37 0C for 30 min. MIC values are recorded as the lowest concentration […]
(§7) tetrazolidium salt acts as an electron accepter and is reduced to a red colored formazan product by biological activity organisms. Where bacterial growth was inhibited, the solution in the well remained clear after incubation with INT. […]

E. coli = assay: MIC by twofold serial dilution; type: cell-based, Escherichia coli (ATCC 11775); conditions: Escherichia coli; Gram-negative; read-out: Minimum inhibitory concentration (MIC), E. coli
Protocol: as §1
as §1, with “The” for “Table 5 presents the”, “the tested” for “these”, “bacteria were” for “bacteria, utilizing ciprofloxacin as the reference drug,”, “2022]). See Appendix A for more details.” for “2022]).”
as §2, §3, §4, §5, §6, §7

P. aeruginosa = assay: MIC by twofold serial dilution; type: cell-based, Pseudomonas aeuroginosa (ATCC 10145); conditions: Pseudomonas aeruginosa; Gram-negative; read-out: Minimum inhibitory concentration (MIC), P. aeruginosa
Protocol: as §1
as §1, with “The” for “Table 5 presents the”, “the tested” for “these”, “bacteria were” for “bacteria, utilizing ciprofloxacin as the reference drug,”, “2022]). See Appendix A for more details.” for “2022]).”
as §2, §3, §4, §5, §6, §7

B. subtilis = assay: MIC by twofold serial dilution; type: cell-based, Bacillus subtilis (ATCC 6051); conditions: Gram-positive
Protocol: as §1
as §1, with “The” for “Table 5 presents the”, “the tested” for “these”, “bacteria were” for “bacteria, utilizing ciprofloxacin as the reference drug,”, “2022]). See Appendix A for more details.” for “2022]).”
as §2, §3, §4, §5, §6, §7

Chain of VEGFR-2 (P35968 20-1356): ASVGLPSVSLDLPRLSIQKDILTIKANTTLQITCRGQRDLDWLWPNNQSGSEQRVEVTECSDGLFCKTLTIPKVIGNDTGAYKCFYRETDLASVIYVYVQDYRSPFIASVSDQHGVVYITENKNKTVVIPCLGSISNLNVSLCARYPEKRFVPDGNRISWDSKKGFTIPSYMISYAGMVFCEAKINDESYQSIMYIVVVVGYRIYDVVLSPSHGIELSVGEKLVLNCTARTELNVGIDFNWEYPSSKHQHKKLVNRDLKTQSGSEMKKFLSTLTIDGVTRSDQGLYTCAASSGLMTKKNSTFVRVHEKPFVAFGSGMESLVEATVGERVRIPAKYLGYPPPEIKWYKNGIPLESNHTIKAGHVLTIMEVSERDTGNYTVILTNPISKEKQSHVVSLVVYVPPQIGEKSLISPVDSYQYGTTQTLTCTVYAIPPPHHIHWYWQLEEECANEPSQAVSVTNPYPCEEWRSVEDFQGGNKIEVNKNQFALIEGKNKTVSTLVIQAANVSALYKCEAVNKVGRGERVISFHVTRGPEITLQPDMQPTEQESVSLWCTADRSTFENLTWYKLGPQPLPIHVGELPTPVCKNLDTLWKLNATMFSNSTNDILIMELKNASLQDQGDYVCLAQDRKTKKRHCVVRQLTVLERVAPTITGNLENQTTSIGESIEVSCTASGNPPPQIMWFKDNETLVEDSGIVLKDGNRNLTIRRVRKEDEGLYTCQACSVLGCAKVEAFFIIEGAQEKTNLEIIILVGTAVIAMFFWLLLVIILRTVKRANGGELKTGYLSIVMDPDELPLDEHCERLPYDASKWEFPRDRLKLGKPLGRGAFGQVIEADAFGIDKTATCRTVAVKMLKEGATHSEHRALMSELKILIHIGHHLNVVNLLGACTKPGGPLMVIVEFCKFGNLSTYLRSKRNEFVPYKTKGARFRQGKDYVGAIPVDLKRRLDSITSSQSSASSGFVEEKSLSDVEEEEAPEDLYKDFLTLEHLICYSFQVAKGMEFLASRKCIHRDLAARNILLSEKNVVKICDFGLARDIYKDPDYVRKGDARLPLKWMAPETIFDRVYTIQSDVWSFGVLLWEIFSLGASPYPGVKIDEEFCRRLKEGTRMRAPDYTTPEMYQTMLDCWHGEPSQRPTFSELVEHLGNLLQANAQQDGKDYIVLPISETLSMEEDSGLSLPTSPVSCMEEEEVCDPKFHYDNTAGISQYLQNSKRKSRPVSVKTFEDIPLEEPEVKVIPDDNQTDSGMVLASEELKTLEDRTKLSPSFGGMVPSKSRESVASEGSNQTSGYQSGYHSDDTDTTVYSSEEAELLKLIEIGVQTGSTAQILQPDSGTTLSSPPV
Chain of EGFR (P00533 669-1210): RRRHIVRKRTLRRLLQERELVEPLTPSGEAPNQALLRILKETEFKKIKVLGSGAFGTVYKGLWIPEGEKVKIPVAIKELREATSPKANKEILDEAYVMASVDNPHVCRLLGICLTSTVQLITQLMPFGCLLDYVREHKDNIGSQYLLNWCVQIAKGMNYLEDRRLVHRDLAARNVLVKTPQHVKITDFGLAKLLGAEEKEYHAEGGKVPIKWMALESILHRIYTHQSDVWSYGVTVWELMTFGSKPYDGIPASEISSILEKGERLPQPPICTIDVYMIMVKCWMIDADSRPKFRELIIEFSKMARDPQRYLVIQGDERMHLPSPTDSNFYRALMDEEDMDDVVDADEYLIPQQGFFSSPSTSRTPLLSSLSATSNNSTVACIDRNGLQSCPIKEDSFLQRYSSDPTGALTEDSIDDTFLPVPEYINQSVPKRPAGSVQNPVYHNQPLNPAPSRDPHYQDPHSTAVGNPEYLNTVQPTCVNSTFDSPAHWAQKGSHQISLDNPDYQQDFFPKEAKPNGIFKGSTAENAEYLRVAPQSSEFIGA

Compound | viability at 96 h, 50 µM (in vitro) | remaining activity at 1 µM (E. coli DNA gyrase) | GI50 [1] | IC50 (MCF-7 cells) | IC50 (Panc-1 cells) | IC50 (HT-29 cells) | IC50 (A-549 cells) | also measured
COc1ccc(/C=C/C(=O)c2sc(SCC(=O)c3cc4cc(Br)ccc4oc3=O)nc2C)cc1 [Compound 11f, (E)-6-Bromo-3-(2-((5-(3-(4-methoxyphenyl)acryloyl)-4-methylthiazol-2-yl)thio)acetyl)-2H-chromen-2-one] | 93% | 71% | 0.027 µM | 0.029 ± 0.001 µM | 0.026 ± 0.001 µM | 0.028 ± 0.001 µM | 0.025 ± 0.001 µM | Fold more active than erlotinib (GI50) ([1]; four cancer cell lines): 1.2 fold; Fold more potent than erlotinib (IC50), MCF-7 (MCF-7 cells; MCF-7): 1.4 fold; IC50 (VEGFR-2): 2.9 ± 0.01 µM; Fold more potent than erlotinib (IC50), A-549 (A-549 cells; A-549): 1.2 fold; IC50 (EGFR): 0.071 ± 0.003 µM
Cc1nc(SCC(=O)c2cc3ccccc3o2)sc1C(=O)/C=C/c1ccccc1 [Compound 12a, (E)-1-(2-((2-(Benzofuran-2-yl)-2-oxoethyl)thio)-4-methylthiazol-5-yl)-3-phenylprop-2-en-1-one] | 93% | 61% | 0.067 µM | 0.07 ± 0.005 µM | 0.066 ± 0.005 µM | 0.066 ± 0.005 µM | 0.065 ± 0.005 µM | 
C#Cc1cccc(Nc2ncnc3cc(OCCOC)c(OCCOC)cc23)c1 [Erlotinib, reference compound] |  |  |  | 0.04 ± 0.003 µM | 0.03 ± 0.003 µM | 0.03 ± 0.003 µM | 0.03 ± 0.003 µM | 
Cc1nc(SCC(=O)c2cc3cc(Br)ccc3o2)sc1C(=O)/C=C/c1ccc(Cl)cc1 [Compound 12e, (E)-1-(2-((2-(5-bromobenzofuran-2-yl)-2-oxoethyl)thio)-4-methylthiazol-5-yl)-3-(4-chlorophenyl)prop-2-en-1-one] | 94% |  | 0.062 µM | 0.064 ± 0.005 µM | 0.062 ± 0.005 µM | 0.062 ± 0.005 µM | 0.06 ± 0.005 µM | Fold less effective than compound 11b (DNA gyrase IC50) (E. coli DNA gyrase): approximately 1.2 fold; IC50 (E. coli DNA gyrase): 0.217 ± 0.015 µM; Fold less efficient than 11e (GI50) [1]: 1.5 fold
Cc1nc(SCC(=O)c2cc3cc(Br)ccc3o2)sc1C(=O)/C=C/c1ccccc1 [Compound 12d, (E)-1-(2-((2-(5-Bromobenzofuran-2-yl)-2-oxoethyl)thio)-4-methylthiazol-5-yl)-3-phenylprop-2-en-1-one] | 90% | 65% | 0.048 µM | 0.05 ± 0.003 µM | 0.048 ± 0.003 µM | 0.048 ± 0.003 µM | 0.045 ± 0.003 µM | Fold less effective than 11d (GI50) [1]: 1.6 fold
O=C(O)c1cn(C2CC2)c2cc(N3CCNCC3)c(F)cc2c1=O [Ciprofloxacin, reference compound] |  |  |  |  |  |  |  | MIC (S. aureus): 0.03 ± 0.002 µM (≈ 9.94 ng/mL); MIC (E. coli): 0.06 ± 0.004 µM (≈ 19.9 ng/mL); MIC (P. aeruginosa): 0.06 ± 0.004 µM (≈ 19.9 ng/mL); MIC (B. subtilis; Bacillus subtilis, read-out: Minimum inhibitory concentration (MIC), B. subtilis): 0.01 µM (≈ 3.31 ng/mL); Minimum inhibitory concentration (MIC), B. subtilis (B. subtilis): 0.01 ± 0.001 µM (≈ 3.31 ng/mL)
